According to patent US20250090498A1, “TREATMENT OF PRIMARY CTLA-4 CHECKPOINT RELATED IMMUNODEFICIENCIES” (ADIENNE PHARMA & BIOTECH SA, priority 2023, published 2025):

Legend:
[1] = preliminary pharmacokinetics in serum after Eudragit-formulated 3-IAld (90% 3-IAld/10% 13C8-labeled 3-IAld), mass spectrometry; type: in vivo
Method: Primary pharmacodynamics studies have been performed. The mode of action of 3-IAld occurs upon binding to AhR, both in vitro and in vivo. In vitro, 3-IAld induced luciferase activity in the H1L1.1c2 cell line containing a stably-transfected AhR-responsive firefly luciferase at the dose range […] (Zelante et al, 2013). […] Preliminary pharmacokinetics data have been obtained by administration of Eudragit-formulated 3-IAld in the composition 90% 3-IAld/10% 13C8-labeled 3-IAld and targeted/untargeted analysis by mass spectrometry in serum at different times (30 minutes (min), 1 hour (h), 2 h, 4.5h, 6 h, 24h). […] The presence of indole-3-formic acid was also confirmed with labelled 3-IAld (FIG. 13E), showing a similar kinetics and a peak level of about 25 μM at 30 min.

[2] = single-dose pharmacokinetic study in healthy C57BL/6 mice, tissues and serum by mass spectrometry
Method: A single-dose pharmacokinetic (PK) study was performed on healthy C57BL/6 mice to compare 1ME3CA and 3-IAld at 0.36 mg/topo dose. Untreated naïve mice were used as the control. […] Blood, obtained by cardiac puncture and collected into EDTA-containing tubes, and organs (brain, lung, intestine, liver and kidney) were assessed. All samples were stored at −80° C. until use. To evaluate 1ME3CA and 3-IAld for functional activity, the expression of AhR-downstream genes were concomitantly evaluated in these mice.

AhR = molecular target: T1, AhR (Homo sapiens, UniProt P35869); test: Cyp1A1 induction in HepG2 liver cancer cell line; type: cell-based; set-up: endogenous in cells; host or cells: HepG2, A549, Calu-3, CaCo-2; settings: for induction of the AhR activation marker Cyp1A1 (mRNA): between 1 and 100 μM
T1 sequence (P35869 11-848): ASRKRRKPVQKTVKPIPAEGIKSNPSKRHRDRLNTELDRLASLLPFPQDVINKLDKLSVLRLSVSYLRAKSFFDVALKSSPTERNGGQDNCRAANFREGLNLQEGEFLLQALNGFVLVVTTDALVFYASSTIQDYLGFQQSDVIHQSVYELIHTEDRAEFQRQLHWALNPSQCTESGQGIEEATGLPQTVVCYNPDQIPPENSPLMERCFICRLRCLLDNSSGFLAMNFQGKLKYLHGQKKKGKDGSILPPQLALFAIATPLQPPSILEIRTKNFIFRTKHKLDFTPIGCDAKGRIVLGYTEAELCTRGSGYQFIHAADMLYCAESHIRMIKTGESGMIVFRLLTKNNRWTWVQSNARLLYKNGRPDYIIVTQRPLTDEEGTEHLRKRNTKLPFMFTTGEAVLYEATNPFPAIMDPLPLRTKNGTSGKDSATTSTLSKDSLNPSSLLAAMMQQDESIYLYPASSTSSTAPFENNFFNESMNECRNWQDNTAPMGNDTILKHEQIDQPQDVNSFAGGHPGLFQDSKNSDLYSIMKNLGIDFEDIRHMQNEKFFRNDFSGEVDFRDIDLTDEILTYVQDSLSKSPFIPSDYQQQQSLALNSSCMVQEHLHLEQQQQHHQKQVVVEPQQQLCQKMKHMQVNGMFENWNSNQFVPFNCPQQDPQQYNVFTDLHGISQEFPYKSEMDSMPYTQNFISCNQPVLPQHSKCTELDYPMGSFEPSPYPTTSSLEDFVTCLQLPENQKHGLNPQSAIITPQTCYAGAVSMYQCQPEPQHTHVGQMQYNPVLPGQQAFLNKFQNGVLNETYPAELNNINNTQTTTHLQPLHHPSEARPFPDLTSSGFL
Excerpt: FIG. 14 graphically represents Cypla1 mRNA fold increase with the addition of 3-IAld or Ox-3-IAld.

SMILES: Cn1c(C(=O)O)cc2ccccc21 [1-Methylindole-2-carboxylic acid]
- serum level of methylated forms of indole-3-formic acid at 1 hour ([1]; 1 hour after 3-IAld): reduced levels
- peak serum level of methylated forms of indole-3-formic acid ([1]; at 30 minutes after 3-IAld): about 150 nM

SMILES: COC(=O)c1c[nH]c2ccccc12 [Methyl indole-3-carboxylate]
- serum level of methylated forms of indole-3-formic acid at 1 hour ([1]; in vivo): reduced levels

SMILES: O=C(O)c1c[nH]c2ccccc12 [indole-3-formic acid]
- concentrations in all organs ([2]; after enteric 1ME3CA 18 mg/Kg): basal
- clearance of metabolites from the organs ([2]; after oral 3-IAld 18 mg/Kg): rapid clearance
- presence as metabolite of 3-IAld in serum and other tissues ([2]; after oral 3-IAld 18 mg/Kg): main metabolite
- pharmacological activity in vitro (AhR): pharmacologically active
- induction of the AhR activation marker Cyp1A1 (mRNA) (AhR): induce the AhR activation marker Cyp1A1 in a dose-dependent manner
- induction of the AhR activation marker Cyp1A1 (mRNA) (AhR; listed as Ox-3-IAld): induction of the AhR activation marker Cyp1A1 in a dose-dependent manner
